Measurements from patent US4416877A, “Anti-atherosclerotic pharmaceutical compositions containing diphosphonate compounds” (priority 1979, dated 1983).
“Also recorded” adds a separate entry of the source. Where a name gives a salt, the structure may show the parent alone. Read-outs that look alike come from different tables or passages of the source.

How the values were obtained:
lipid metabolism = assay: Effects of diphosphonates on lipid metabolism in normal rats (serum lipids, α/β cholesterol); format: in vivo, male Wistar rats; conditions: for change in vivo at 200 mg/kg/day: Rattus norvegicus, po; for increased HDL lipids, especially HDL cholesterol: normal rats
Method: Effects of diphosphonates of formula (I) on lipid metabolism in normal rats Groups of 4 to 5 normal male Wistar rats, weighing about 200 g were treated with diphosphonates (200 mg/kg/day) p.o. for 4 to 21 days. Water soluble compounds were given in solution in 24 mM bicarbonate buffer. Lipid soluble compounds were given in corn oil. The rats were weighed, sacrificed by decapitation (under light ether anesthesia) after overnight fasting. Blood was collected and serum used for analysis. The following blood parameters reflecting changes in lipid metabolism are reported: […]
free fatty acids measured according to W. G. Duncombe (Clin. Acta 9, 122, 1964) triglycerides enzymatic method (Boehringer Mannheim Kit 126 012) phospholipids: molybdate/vanadate reaction (Boehringer Mannheim Kit 124 974) β-lipoprotein cholesterol was measured after heparin, CaCl2 precipitation according to M. Burstein et al. (La Presse Medicale 43, 974, 1958) and to D. Watson (Clin. Chim. Acta 5, 637, 1960).
(§1) In above Table IV, results are given as % control values. Except for serum calcium, values which differ from control values by less than 15% are considered as non significant (NS).
Serum free fatty acids, triglycerides and phospholipids were measured in normal rats (N) and rats previously fed a cholesterol diet for 10 days (C.F.) Serum α/β cholesterol, total lipids and cholesterol of liver and aorta were determined in normal rats (N) and rats which had previously been fed on high cholesterol diet (C.F.)

tissue cholesterol = assay: Effects in cholesterol fed rats (serum, liver and aorta lipids); format: in vivo; conditions: for change in vivo at 200 mg/kg/day: Rattus norvegicus; for liver total lipids and/or liver cholesterol: cholesterol fed rats
Method: Effects of diphosphonates of formula (I) in cholesterol fed rats
In order to increase tissue cholesterol, especially liver, rats were fed a high fat-high cholesterol diet for 10 days to 3 months, with the following diet composition: casein 20%, butter 37%, cellulose 9.1%, dextrose 18,9%, cholesterol 4.5%, sodium cholate 1.8%, minerals 7.3%, vitamins 1%, choline 0.4%.
The rats were then fed normal food and were treated for 10 days to 3 months with different compounds (200 mg/kg/day). Serum parameters described above were measured. Liver and aorta lipids were extracted according to J. Folch et al (J. Biochem. 226, 497, 1957). Total lipids were determined by the sulfophosphovanillic reaction (see N. Zolner and K. Kirsch, Z. Ges. exp. Med. 135, 545, 1962) and cholesterol by the Liebermann-Burchard reaction or appropriate enzymatic reaction.
as §1
Serum free fatty acids, triglycerides and phospholipids were measured in normal rats (N) and rats previously fed a cholesterol diet for 10 days (C.F.)
Serum α/β cholesterol, total lipids and cholesterol of liver and aorta were determined in normal rats (N) and rats which had previously been fed on high cholesterol diet (C.F.)

serum calcium = assay: Effects of acid and salt form of diphosphonates in hypercalceamic rats; format: in vivo, male Wistar rats; conditions: for Serum Calcium (% control values): 15% NS limit does not apply; for decrease of serum calcium: about 50 mg/kg/day in drinking water, 15 days
Method: Effects of acid and salt form of diphosphonates of formula (I) in hypercalceamic rats
To verify this activity the acid form of compound 4 and is monosodium salt counterpart (compound 10) were also tested by using a protol similar to the one described by Potokar (see above). Briefly, groups of 4 male Wistar rats received acid or salt form of compound 4 as 0.05% solution in drinking water corresponding to about 50 mg/kg/day. The rats were treated with the compounds for 15 days.
Serum calcium was measured in hypercalceamic rats.

[1] = test system: alpha/beta cholesterol ratio; assay: Comparison of clofibrate, gemfibrozil and fenofibrate to compound 16: alpha/beta cholesterol ratio in normal Wistar rats; format: in vivo; conditions: 100 mg/kg for 10 days, n = 5
Method: It should be noted that these diphosphonate compounds are different and novel in comparison to the classical hypolipidemic compounds as illustrated in Table V. The diphosphonate ester used for comparison was the only one to increase the alpha/beta cholesterol ratio in control rats.
Each drug was administered at 100 mg/kg for 10 days

HDL cholesterol = conditions: rats; Day et al., Muller and Cortesi; cited from earlier work
Oral LD50 toxicity = format: in vivo; conditions: in vivo; oral
Text: Following the extensive pharmacological screening of these compounds, using over 2000 animals, those showing the most potential were then subjected to toxicity testing for further selection relative to their activity/toxicity risk profiles
By way of LD50 (Lethal Dose 50) the methyl diphosphonates were discovered to have a significant lower degree of toxicity. […] This represents a significant six fold difference in toxicity.

[2] = test system: aorta and kidney calcification; conditions: hypercalceamic animal model; cited from earlier work
[3] = normal rats (N), 200 mg/kg/day p.o., read-out: Serum Chol. α/β (% control values)
[4] = normal rats (N), 200 mg/kg/day p.o., read-out: Serum Phospholipids (% control values)
[5] = normal rats (N), 200 mg/kg/day p.o., 200 mg/kg/day
[6] = cholesterol fed rats (C.F), 200 mg/kg/day, read-out: Liver Chol. (% control values)
[7] = cholesterol fed rats (C.F), 200 mg/kg/day, read-out: Liver Total Lipids (% control values)
[8] = cholesterol fed rats (C.F), 200 mg/kg/day
[9] = normal rats (N), 200 mg/kg/day p.o., read-out: Serum Free Fatty Acids (% control values)
[10] = normal rats (N), 200 mg/kg/day p.o., read-out: Serum Triglycerides (% control values)
[11] = normal rats (N), 200 mg/kg/day p.o., monosodium salt, 200 mg/kg/day
[12] = normal rats (N), 200 mg/kg/day p.o.

O=P(O)(O)C(O)(c1ccc(Cl)cc1)P(=O)(O)O [4 Acid, hydroxy (p-chlorophenyl) methylenediphosphonic acid]
change in vivo at 200 mg/kg/day (lipid metabolism; [3]): < 15% | change in vivo at 200 mg/kg/day (lipid metabolism; [4]): < 15% | Serum Free Fatty Acids (% control values) (lipid metabolism; [5]): -17% | Serum Triglycerides (% control values) (lipid metabolism; [5]): -29% | decreases in serum triglycerides (lipid metabolism; rats): Significant decreases | property to change lipid metabolism / increase HDL (lipid metabolism; rats): do not have these properties | change in vivo at 200 mg/kg/day (tissue cholesterol; [6]): < 15% | change in vivo at 200 mg/kg/day (tissue cholesterol; [7]): < 15% | Aorta Chol. (% control values) (tissue cholesterol; [8]): NS (Except for serum calcium, values which differ from control values by less than 15% are considered as non significant (NS)) | Aorta Total Lipids (% control values) (tissue cholesterol; [8]): NS (Except for serum calcium, values which differ from control values by less than 15% are considered as non significant (NS)) | Serum Calcium (% control values) (serum calcium): -20% | decrease of serum calcium (serum calcium; listed as acid form of compound 4): 20%

CCOC(=O)C(C)(C)Oc1ccc(Cl)cc1 [Clofibrate, reference compound]
change in vivo at 200 mg/kg/day (lipid metabolism; [3]): < 15% | change in vivo at 200 mg/kg/day (lipid metabolism; [9]): < 15% | change in vivo at 200 mg/kg/day (lipid metabolism; [4]): -34% | change in vivo at 200 mg/kg/day (lipid metabolism; [10]): 19% | decrease of plasma phospholipids (lipid metabolism; rats, comparison): 33.6% | decrease of α/β ratio (lipid metabolism; rats, comparison): 52.2% | change in vivo at 200 mg/kg/day (tissue cholesterol; [6]): < 15% | alpha/beta Cholesterol Ratio [1]: 2.76 ± 0.40 | HDL cholesterol (HDL cholesterol): decreases HDL cholesterol

COP(=O)(OC)C(O)(c1ccc(C(=O)c2ccc(Cl)cc2)cc1)P(=O)(OC)OC [Compound 9, Tetramethyl 1[4(4'-chlorobenzoyl)-phenyl]methane 1-hydroxy 1,1-diphosphonate]
change in vivo at 200 mg/kg/day (lipid metabolism; [9]): -38% | change in vivo at 200 mg/kg/day (lipid metabolism; [4]): < 15% | change in vivo at 200 mg/kg/day (lipid metabolism; [10]): -16% | increased HDL lipids, especially HDL cholesterol (lipid metabolism): observed most dramatically | decreases in serum triglycerides (lipid metabolism; rats): Significant decreases | α-cholesterol/β-cholesterol ratio / lipoprotein cholesterol (lipid metabolism; rats): highly significant activity | change in vivo at 200 mg/kg/day (tissue cholesterol; [6]): < 15% | change in vivo at 200 mg/kg/day (tissue cholesterol; [7]): -25% | liver total lipids and/or liver cholesterol (tissue cholesterol): decreased significantly | Aorta Chol. (% control values) (tissue cholesterol; [8]): -39% | Aorta Total Lipids (% control values) (tissue cholesterol; [8]): NS (Except for serum calcium, values which differ from control values by less than 15% are considered as non significant (NS)) | Serum Chol. α/β (% control values) (tissue cholesterol; [8]): +51% | Serum Free Fatty Acids (% control values) (tissue cholesterol; [8]): -52% | Serum Phospholipids (% control values) (tissue cholesterol; [8]): +36% | Serum Triglycerides (% control values) (tissue cholesterol; [8]): -17%

O=P(O)(O)C(O)(c1ccc(Cl)cc1)P(=O)(O)O [Compound 10, 1-hydroxy 1 (p-chlorophenyl)methane 1,1-diphosphonic acid, monosodium salt]
Serum Free Fatty Acids (% control values) (lipid metabolism; [11]): -27% | Serum Triglycerides (% control values) (lipid metabolism; [11]): -17% | Serum Calcium (% control values) (serum calcium; monosodium salt): -14% | decrease of serum calcium (serum calcium; listed as salt form of compound 4, monosodium salt): 14%

COP(=O)(OC)OC(c1ccccc1)P(=O)(OC)OC (stereo not drawn) [Compound 13, dimethyl α(dimethoxyphosphinyl) benzylphosphate]
Serum Free Fatty Acids (% control values) (lipid metabolism; [12]): -21% | Serum Phospholipids (% control values) (lipid metabolism; [12]): +21% | Serum Triglycerides (% control values) (lipid metabolism; [12]): +32% | increase in serum phospholipid (lipid metabolism; rats): found to increase | liver total lipids and/or liver cholesterol (tissue cholesterol): decreased significantly | Liver Chol. (% control values) (tissue cholesterol; [8]): -51% | Liver Total Lipids (% control values) (tissue cholesterol; [8]): -18% | Serum Chol. α/β (% control values) (tissue cholesterol; [8]): +25%

COP(=O)(OC)OC(c1ccc(C)cc1)P(=O)(OC)OC (stereo not shown) [Compound 18]
change in vivo at 200 mg/kg/day (lipid metabolism; [3]): < 15% | change in vivo at 200 mg/kg/day (lipid metabolism; [4]): < 15% | change in vivo at 200 mg/kg/day (lipid metabolism; [10]): -33% | change in vivo at 200 mg/kg/day (tissue cholesterol; [7]): < 15%

COP(=O)(OC)OC(C(C)(C)c1ccc(Cl)cc1)P(=O)(OC)OC (stereo not shown) [Compound 21, Dimethyl 1-(dimethoxyphosphinyl) 2,2-dimethyl 2(p-chlorophenyl) ethylphosphate]
change in vivo at 200 mg/kg/day (lipid metabolism; [3]): < 15% | change in vivo at 200 mg/kg/day (lipid metabolism; [4]): 16% | change in vivo at 200 mg/kg/day (lipid metabolism; [10]): -38% | decreases in serum triglycerides (lipid metabolism; rats): Significant decreases | increase in serum phospholipid (lipid metabolism; rats): found to increase | change in vivo at 200 mg/kg/day (tissue cholesterol; [6]): -46% | change in vivo at 200 mg/kg/day (tissue cholesterol; [7]): -36% | liver total lipids and/or liver cholesterol (tissue cholesterol): decreased significantly | Serum Chol. α/β (% control values) (tissue cholesterol; [8]): -32% | Serum Phospholipids (% control values) (tissue cholesterol; [8]): +24% | Serum Triglycerides (% control values) (tissue cholesterol; [8]): +28%

CCOP(=O)(OCC)OC(c1ccc(Cl)cc1)P(=O)(OCC)OCC (stereo not shown) [Compound 24]
change in vivo at 200 mg/kg/day (lipid metabolism; [3]): < 15% | change in vivo at 200 mg/kg/day (lipid metabolism; [4]): < 15% | change in vivo at 200 mg/kg/day (lipid metabolism; [10]): < 15% | LD50 (Oral LD50 toxicity): 547 mg/kg

CCOP(=O)(OCC)C(Cc1ccc(Cl)cc1)P(=O)(OCC)OCC [Compound 27]
change in vivo at 200 mg/kg/day (lipid metabolism; [9]): -44% | change in vivo at 200 mg/kg/day (lipid metabolism; [4]): < 15% | change in vivo at 200 mg/kg/day (lipid metabolism; [10]): -16% | decreases in serum triglycerides (lipid metabolism; rats): Significant decreases | change in vivo at 200 mg/kg/day (tissue cholesterol; [6]): < 15% | change in vivo at 200 mg/kg/day (tissue cholesterol; [7]): < 15% | liver total lipids and/or liver cholesterol (tissue cholesterol): decreased significantly | Aorta Chol. (% control values) (tissue cholesterol; [8]): NS (Except for serum calcium, values which differ from control values by less than 15% are considered as non significant (NS)) | Aorta Total Lipids (% control values) (tissue cholesterol; [8]): -60% | Serum Chol. α/β (% control values) (tissue cholesterol; [8]): -35% | Serum Free Fatty Acids (% control values) (tissue cholesterol; [8]): -65% | Serum Phospholipids (% control values) (tissue cholesterol; [8]): NS (Except for serum calcium, values which differ from control values by less than 15% are considered as non significant (NS)) | Serum Triglycerides (% control values) (tissue cholesterol; [8]): -24%

COP(=O)(OC)C(Cc1ccc(Cl)cc1)P(=O)(OC)OC [Compound 35]
change in vivo at 200 mg/kg/day (lipid metabolism; [3]): 75% | change in vivo at 200 mg/kg/day (lipid metabolism; [9]): -44% | change in vivo at 200 mg/kg/day (lipid metabolism; [4]): 51% | change in vivo at 200 mg/kg/day (lipid metabolism; [10]): < 15% | increased HDL lipids, especially HDL cholesterol (lipid metabolism): observed most dramatically | increase in serum phospholipid (lipid metabolism; rats): found to increase; also recorded: at least two fold the most active | α-cholesterol/β-cholesterol ratio / lipoprotein cholesterol (lipid metabolism; rats): highly significant activity | change in vivo at 200 mg/kg/day (tissue cholesterol; [6]): -19% | change in vivo at 200 mg/kg/day (tissue cholesterol; [7]): < 15% | liver total lipids and/or liver cholesterol (tissue cholesterol): decreased significantly

CC(C)OC(=O)C(C)(C)Oc1ccc(C(=O)c2ccc(Cl)cc2)cc1 [Fenofibrate]
alpha/beta Cholesterol Ratio [1]: 1.19 ± 0.20

Cc1ccc(C)c(OCCCC(C)(C)C(=O)O)c1 [Gemfibrozil]
alpha/beta Cholesterol Ratio [1]: 5.33 ± 0.31

O=P(O)(O)C(Cl)(Cl)P(=O)(O)O [dichloromethylene diphosphonate]
aorta and kidney calcification [2]: inhibit aorta and kidney calcification | vitamin D-induced rise in plasma calcium [2]: prevent the vitamin D-induced rise in plasma calcium
